In test [1] the test system is HM7 (human colon carcinoma cell line). Kind of test: Subcutaneous HM7 tumor growth in athymic nude mice. The note with it: after 15 days of subcutaneous injection. It counts as in vivo. On the procedure:
From the next day, a solution of each peptide in PBS (0.5 μg/100 μl/day) was subcutaneously injected to the mice for 15 days. Sizes of the tumors thus formed were periodically measured while tumor volumes were calculated according to the following formula: Tumor Size=0.5×(Diameter)^2×length

The next test addresses T1, VEGF8-109 (Homo sapiens, UniProt P15692).
T1 construct: made in house; host or cells: E. coli BL21(DE3)pLysS, inclusion bodies
T1 sequence (P15692 214-315): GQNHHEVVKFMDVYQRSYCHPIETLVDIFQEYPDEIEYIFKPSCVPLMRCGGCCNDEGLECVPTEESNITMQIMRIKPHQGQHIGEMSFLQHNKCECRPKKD
The test can be described thus: Inhibition of labeled VEGF8-109 binding to its receptors. Conditions: FIG. 9. The source says:
(§1) In order to verify this postulation, Sequence 1 (RRKRRR) was examined for the common binding domain on VEGF because it inhibited the binding of VEGF to its receptors at the highest efficiency. First, appropriate primers were synthesized and used to amplify various cDNAs coding for VEGF165, VEGF121, VEFG8-121, VEGF109, and VEGF8-109 while a human liver cDNA library (Clontech) served as a template. After being inserted to plasmid pRSET A (Invitrogen), the cDNAs were sequenced. The resulting five pRSET A vectors, each having one of the five cDNAs, were introduced into an expression strain (BL21(DE3)pLysS) containing T7 RNA polymerase. […] The purified VEGFs were quantified by use of a protein assay reagent (Bio-Rad) and all found to bind to VEGF receptors and exert growth hormone activity on HUVEC. […] For use, each labeled protein was quantified by ELISA (enzyme-linked immunosorbent assay) using a mouse monoclonal anti-VEGF antibody (R&D systems).
(§2) Each peptide was examined for antagonistic activity against VEGF in the same manner as in Example 2. Referring to FIG. 9, the radioactivity measured from ^125I-labeled VEGF associated with fixed Sequence 1 (RRKRRR) (SEQ ID NO: 1) is plotted in the absence of competitors and in the presence of competitors for various VEGF isomers. […]

In a further test the test system is rabbit corneal domes. The test can be described thus: Rabbit corneal dome angiogenesis induced by VEGF. It counts as in vivo. Conditions: VEGF 10 ng with 1 μg peptide, 16 days after operation; listed as Sequence 1. On the procedure:
To confirm the test results obtained from egg CAM, an experiment was performed using rabbit corneal domes for in vivo angiogenesis testing. New Zealand male rabbits weighing 3 kg (SLC, Japan) were subjected to intramuscular ketamine anesthesia (44 mg/kg), followed by dissecting the corneal domes to a length of 3 mm by use of an operating knife (Bard-Parker—#11). […] 16 days after the operation, angiogenesis was obviously observed and photographs were taken of blood vessels newly formed in the corneal dome (Nikon, FS-2, Japan).

The next test deals with T2, VEGF121 (Homo sapiens, UniProt P15692).
T2 construct: made in house; host or cells: E. coli BL21(DE3)pLysS, inclusion bodies
T2 sequence (P15692 27-147 isoform P15692-9): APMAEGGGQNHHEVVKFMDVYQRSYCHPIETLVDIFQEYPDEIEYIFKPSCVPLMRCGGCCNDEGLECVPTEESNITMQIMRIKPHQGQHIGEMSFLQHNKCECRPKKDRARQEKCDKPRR
Kind of test: Inhibition of labeled VEGF121 binding to its receptors. Conditions: heparin-binding domain-deficient isoform, FIG. 9.
Description: as §1, §2

Another test deals with T3, VEGF109 (Homo sapiens, UniProt P15692).
T3 construct: made in house; host or cells: E. coli BL21(DE3)pLysS, inclusion bodies
T3 sequence (P15692 27-135 isoform P15692-4): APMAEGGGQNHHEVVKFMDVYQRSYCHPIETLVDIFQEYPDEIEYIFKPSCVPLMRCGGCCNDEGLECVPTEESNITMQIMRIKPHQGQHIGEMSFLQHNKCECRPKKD
Kind of test: Inhibition of labeled VEGF109 binding to its receptors. Conditions: FIG. 9.
Description: as §1, §2

In a further test the target is T4, VEGF8-121 (Homo sapiens, UniProt P15692).
T4 construct: made in house; host or cells: E. coli BL21(DE3)pLysS, inclusion bodies
T4 sequence (P15692 34-147 isoform P15692-9): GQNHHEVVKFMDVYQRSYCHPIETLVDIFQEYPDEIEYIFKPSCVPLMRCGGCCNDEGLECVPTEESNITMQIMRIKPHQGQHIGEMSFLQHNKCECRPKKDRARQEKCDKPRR
The test can be described thus: Inhibition of labeled VEGF8-121 binding to its receptors. Conditions: FIG. 9.
Description: as §1, §2

Here are results for 1 substance from patent publication US7291601B1, “Arginine-rich anti-vascular endothelial growth factor peptides that inhibit growth and metastasis of human tumor cells by blocking angiogenesis” (Korea Greencross Corp., priority 1999, dated 2007).

Entries after “also recorded” stand apart in the source; their conditions may differ.

With “H-RRKRRR-NH2 [compound 8, NH2-Arg-Arg-Lys-Arg-Arg-Arg-CONH2]”, the “effect on tumor size / growth of human colon carcinoma cells in mice” value in test [1] was “effectively inhibits the growth of human colon carcinoma cells in mice”. Also, the “decrease of tumor size compared to the control (PBS)” value in test [1] (0.5 μg/100 μl/day) is given as “about 28%”. Moreover, the “inhibition of binding of VEGF8-109 to its receptors” value at VEGF8-109 was “not inhibited”. Further, the “VEGF-induced angiogenesis in the rabbit corneal dome” value in the test with rabbit corneal domes is recorded as “completely inhibited; also recorded: anti-angiogenic effect”. Moreover, the “inhibition of binding of labeled VEGF121 to its receptors” value on VEGF121 is “inhibited”. The “inhibition of binding of VEGF109 to its receptors” value on VEGF109 is reported as “not inhibited”. The “inhibition of binding of VEGF8-121 to its receptors” value on VEGF8-121 is reported as “not inhibited”.
